Reference: patent publication US8754242B2, “Herbicides” (Syngenta Crop Protection LLC, priority 2007, dated 2014)

What was measured:
Assay type in all cases: in vivo
Avena fatua (AVEFA) [1] = test: Test Example 1 post-emergence herbicidal activity; conditions: rate 125 g/ha, evaluated 15 days later; for pest or weed control at 125 g/ha: 360 h, read-out: Post-emergence activity AVEFA (100=total damage to plant; 0=no damage to plant)
Summary of the method: (§1)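 Pots sown in standard soil were sprayed 1 day (pre-emergence) or 10 days (post-emergence) after sowing with an aqueous spray from an acetone/Emulsogen EL/N-methylpyrrolidone-based formulation. Visual damage was scored 20 days (pre) or 15 days (post) later in the greenhouse, 0 = none to 100 = total.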

Setaria faberi (SETFA) [2] = test: Test Example 1 post-emergence herbicidal activity; conditions: rate 125 g/ha, evaluated 15 days later; for pest or weed control at 125 g/ha: 360 h, read-out: Post-emergence activity SETFA (100=total damage to plant; 0=no damage to plant)
Summary of the method: as §1

Lolium perenne (LOLPE) [3] = test: Test Example 1 post-emergence herbicidal activity; conditions: rate 125 g/ha, evaluated 15 days later; for pest or weed control at 125 g/ha: 360 h, read-out: Post-emergence activity LOLPE (100=total damage to plant; 0=no damage to plant)
Summary of the method: as §1

[4] = tested on: Digitaria sanguinalis (DIGSA); test: Test Example 1 post-emergence herbicidal activity; conditions: rate 125 g/ha, evaluated 15 days later; for pest or weed control at 125 g/ha: 360 h, read-out: Post-emergence activity DIGSA (100=total damage to plant; 0=no damage to plant)
Summary of the method: as §1

[5] = tested on: Echinochloa crus-galli (ECHCG); test: Test Example 1 post-emergence herbicidal activity; conditions: rate 125 g/ha, evaluated 15 days later; for pest or weed control at 125 g/ha: 360 h, read-out: Post-emergence activity ECHCG (100=total damage to plant; 0=no damage to plant)
Summary of the method: as §1

[6] = tested on: Alopecurus myosuroides (ALOMY); test: Test Example 1 post-emergence herbicidal activity; conditions: rate 125 g/ha, evaluated 15 days later; for pest or weed control at 125 g/ha: 360 h, read-out: Post-emergence activity ALOMY (100=total damage to plant; 0=no damage to plant)
Summary of the method: as §1

winter barley 'Antoniya' = test: Test Example 2 post-emergence crop injury, alone and with cloquintocet-mexyl; conditions: Adigor 0.5%, 2-3 leaf seedlings, assessed 14-21 days after application
Excerpt: (§2) Test compounds were applied post-emergence at 60 g ai/ha, alone and in combination with cloquintocet-mexyl at 60 g ai/ha; the adjuvant Adigor (0.5%) was included for every treatment. The application volume was […]. Target plants were 2-3 leaf seedlings of winter wheat ‘Hereward’ and winter barley ‘Antoniya’ grown in a greenhouse under ambient conditions. Assessments were made at 14-21 days after application.

winter wheat 'Hereward' = test: as above; conditions: Adigor 0.5%, 2-3 leaf seedlings, assessed 14-21 days after application
Excerpt: as §2

maize = test: Test Example 3 crop injury of T1 alone and with safeners; conditions: safener (if any) at 1:1, 2-3 leaf stage, assessed 14-21 days after application
Excerpt: (§3) The test compound T1 was applied at 100 and 200 g ai/ha, alone and in combination with a range of safeners as 1:1 mixtures (for example at 100 g+100 g; 200 g+200 g) to the test plants—wheat and maize—at the 2-3 leaf stage. A 4-way safener mixture (cloquintocet-mexyl, benoxacor, fluxofenim and compound A*) was also applied with the test compound so that each safener was used a 1:1 ratio (for example at 100+100+100+100+100 g ai/ha). Assessments were made at 14-21 days after application.

wheat = test: as above; conditions: safener (if any) at 1:1, 2-3 leaf stage, assessed 14-21 days after application
Excerpt: as §3

Avena fatua (AVEFA) [7] = test: Test Example 1 pre-emergence herbicidal activity; conditions: rate 250 g/ha, evaluated 20 days later; for pest or weed control at 250 g/ha: Avena fatua, 480 h, read-out: Pre-emergence activity AVEFA (100=total damage to plant; 0=no damage to plant)
Summary of the method: as §1

Setaria faberi (SETFA) [8] = test: Test Example 1 pre-emergence herbicidal activity; conditions: rate 250 g/ha, evaluated 20 days later; for pest or weed control at 250 g/ha: Setaria faberi, 480 h, read-out: Pre-emergence activity SETFA (100=total damage to plant; 0=no damage to plant)
Summary of the method: as §1

Lolium perenne (LOLPE) [9] = test: Test Example 1 pre-emergence herbicidal activity; conditions: rate 250 g/ha, evaluated 20 days later; for pest or weed control at 250 g/ha: Lolium perenne, 480 h, read-out: Pre-emergence activity LOLPE (100=total damage to plant; 0=no damage to plant)
Summary of the method: as §1

[10] = tested on: Digitaria sanguinalis (DIGSA); test: Test Example 1 pre-emergence herbicidal activity; conditions: rate 250 g/ha, evaluated 20 days later; for pest or weed control at 250 g/ha: Digitaria sanguinalis, 480 h, read-out: Pre-emergence activity DIGSA (100=total damage to plant; 0=no damage to plant)
Summary of the method: as §1

[11] = tested on: Echinochloa crus-galli (ECHCG); test: Test Example 1 pre-emergence herbicidal activity; conditions: rate 250 g/ha, evaluated 20 days later; for pest or weed control at 250 g/ha: Echinochloa crus-galli, 480 h, read-out: Pre-emergence activity ECHCG (100=total damage to plant; 0=no damage to plant)
Summary of the method: as §1

[12] = tested on: Alopecurus myosuroides (ALOMY); test: Test Example 1 pre-emergence herbicidal activity; conditions: rate 250 g/ha, evaluated 20 days later; for pest or weed control at 250 g/ha: Alopecurus myosuroides, 480 h, read-out: Pre-emergence activity ALOMY (100=total damage to plant; 0=no damage to plant)
Summary of the method: as §1

[13] = compound 60 g/ha in combination with cloquintocet-mexyl 60 g/ha
[14] = compound 60 g/ha, cloquintocet-mexyl 0 g/ha

| Structure (SMILES) | Crop Injury (%) Barley (winter barley 'Antoniya'; [13]) | Crop Injury (%) Barley (winter barley 'Antoniya'; [14]) | Crop Injury (%) Wheat (winter wheat 'Hereward'; [13]) | Crop Injury (%) Wheat (winter wheat 'Hereward'; [14]) | pest or weed control at 125 g/ha (Avena fatua (AVEFA) [1]) | pest or weed control at 125 g/ha (Setaria faberi (SETFA) [2]) | pest or weed control at 125 g/ha (Lolium perenne (LOLPE) [3]) | pest or weed control at 125 g/ha [4] | pest or weed control at 125 g/ha [5] | pest or weed control at 125 g/ha [6] | pest or weed control at 250 g/ha (Avena fatua (AVEFA) [7]) | pest or weed control at 250 g/ha (Setaria faberi (SETFA) [8]) | pest or weed control at 250 g/ha (Lolium perenne (LOLPE) [9]) | pest or weed control at 250 g/ha [10] | pest or weed control at 250 g/ha [11] | pest or weed control at 250 g/ha [12] | other results |
| --- | --- | --- | --- | --- | --- | --- | --- | --- | --- | --- | --- | --- | --- | --- | --- | --- | --- |
| CCc1cc(C)cc(CC)c1C1=C(O)[C@H]2[C@@H](C1=O)[C@@H]1CC[C@H]2O1 [Example T1] | 73% | 99% | 18% | 85% |  |  |  |  |  |  |  |  |  |  |  |  | Post-emergence activity AVEFA (100=total damage to plant; 0=no damage to plant) (Avena fatua (AVEFA) [1]): 90; Post-emergence activity SETFA (100=total damage to plant; 0=no damage to plant) (Setaria faberi (SETFA) [2]): 100; Post-emergence activity LOLPE (100=total damage to plant; 0=no damage to plant) (Lolium perenne (LOLPE) [3]): 80; Post-emergence activity DIGSA (100=total damage to plant; 0=no damage to plant) [4]: 100; Post-emergence activity ECHCG (100=total damage to plant; 0=no damage to plant) [5]: 100; Post-emergence activity ALOMY (100=total damage to plant; 0=no damage to plant) [6]: 90; Maize Injury (%) 100 g/ha (maize; T1 at 100 g ai/ha): 90%; Maize Injury (%) 200 g/ha (maize; T1 at 200 g ai/ha): 100%; Wheat Injury (%) 100 g/ha (wheat; T1 at 100 g ai/ha): 83%; Wheat Injury (%) 200 g/ha (wheat; T1 at 200 g ai/ha): 92%; Pre-emergence activity AVEFA (100=total damage to plant; 0=no damage to plant) (Avena fatua (AVEFA) [7]): 100; Pre-emergence activity SETFA (100=total damage to plant; 0=no damage to plant) (Setaria faberi (SETFA) [8]): 100; Pre-emergence activity LOLPE (100=total damage to plant; 0=no damage to plant) (Lolium perenne (LOLPE) [9]): 100; Pre-emergence activity DIGSA (100=total damage to plant; 0=no damage to plant) [10]: 100; Pre-emergence activity ECHCG (100=total damage to plant; 0=no damage to plant) [11]: 100; Pre-emergence activity ALOMY (100=total damage to plant; 0=no damage to plant) [12]: 100 |
| Cc1cc(C)c(C2=C(O)[C@H]3[C@@H](C2=O)[C@@H]2CC[C@H]3O2)c(C)c1 [Example T3] | 5% | 5% | 0% | 28% | 30% | 90% | 60% | 100% | 100% | 60% | 80% | 70% | 100% | 80% | 100% | 90% |  |
| Cc1cc(C)c(C2=C(O)[C@@H]3[C@@H]4O[C@@H](C[C@H]4c4nc(C)cnc4C)[C@@H]3C2=O)c(C)c1 [Example T193] |  |  |  |  | 40% | 30% | 30% | 60% | 60% | 60% | 30% | 40% | 60% | 20% | 20% | 20% |  |
| CCc1nc2ccccc2nc1[C@@H]1C[C@@H]2O[C@H]1[C@H]1C(O)=C(c3c(C)cc(C)cc3C)C(=O)[C@H]12 [Example T194] |  |  |  |  | 0% | 0% | 20% | 70% | 80% | 30% | 20% | 50% | 20% | 70% | 50% | 0% |  |
| Cc1cc(C)c(C2=C(O)[C@@H]3[C@@H]4O[C@@H](C[C@H]4c4ncc(C(F)(F)F)cc4C(F)(F)F)[C@@H]3C2=O)c(C)c1 [Example T203] |  |  |  |  | 10% | 0% | 10% | 50% | 50% | 20% | 20% | 70% | 60% | 70% | 90% | 20% |  |
| COc1cc(C)c(C2=C(O)[C@H]3[C@@H](C2=O)[C@@H]2CC[C@H]3O2)c(C)c1 [Example T208] |  |  |  |  | 70% | 70% | 80% | 50% | 80% | 70% | 70% | 80% | 80% | 70% | 80% | 50% |  |
